According to ChEMBL document CHEMBL1201862, “PubChem BioAssay data set” (2004):
Active and inactive are the calls of the source.

Columns and labels:
[1] = biological target: DNA dC->dU-editing enzyme APOBEC-3G (Homo sapiens, UniProt Q9HC16); test: APOBEC3G deaminase inhibitors, SAR follow-up, biochemical, fluorescence, single-stranded DNA substrate (AID 602136); format: functional; details: read-out: IC50_Mean
[2] = biological target: DNA dC->dU-editing enzyme APOBEC-3A (Homo sapiens, UniProt P31941); test: SAR analysis of small molecule inhibitors of APOBEC3A DNA Deaminase via a fluorescence-based single-stranded DNA deaminase assay.; format: functional; details: read-out: IC50_Mean
[3] = biological target: Cytochrome P450 2D6 (Homo sapiens, UniProt P10635);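 note: CYP2D6 member of a cytochrome P450 panel assay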
[4] = biological target: Cytochrome P450 2C19 (Homo sapiens, UniProt P33261); test: Cytochrome panel assay with activity outcomes. Panel member name: p450-cyp2c19 Compounds with AC50 equal or less than 10 uM are considered active; format: functional; details: read-out: AC50
[5] = biological target: Cytochrome P450 2C9 (Homo sapiens, UniProt P11712)
[6] = biological target: T1, Sentrin-specific protease 6 (Homo sapiens, UniProt Q9GZR1); test: SENP6 protease inhibitors, SAR follow-up, biochemical, luminescence, set 2 (AID 588598); format: functional
T1 sequence (Q9GZR1 whole entry): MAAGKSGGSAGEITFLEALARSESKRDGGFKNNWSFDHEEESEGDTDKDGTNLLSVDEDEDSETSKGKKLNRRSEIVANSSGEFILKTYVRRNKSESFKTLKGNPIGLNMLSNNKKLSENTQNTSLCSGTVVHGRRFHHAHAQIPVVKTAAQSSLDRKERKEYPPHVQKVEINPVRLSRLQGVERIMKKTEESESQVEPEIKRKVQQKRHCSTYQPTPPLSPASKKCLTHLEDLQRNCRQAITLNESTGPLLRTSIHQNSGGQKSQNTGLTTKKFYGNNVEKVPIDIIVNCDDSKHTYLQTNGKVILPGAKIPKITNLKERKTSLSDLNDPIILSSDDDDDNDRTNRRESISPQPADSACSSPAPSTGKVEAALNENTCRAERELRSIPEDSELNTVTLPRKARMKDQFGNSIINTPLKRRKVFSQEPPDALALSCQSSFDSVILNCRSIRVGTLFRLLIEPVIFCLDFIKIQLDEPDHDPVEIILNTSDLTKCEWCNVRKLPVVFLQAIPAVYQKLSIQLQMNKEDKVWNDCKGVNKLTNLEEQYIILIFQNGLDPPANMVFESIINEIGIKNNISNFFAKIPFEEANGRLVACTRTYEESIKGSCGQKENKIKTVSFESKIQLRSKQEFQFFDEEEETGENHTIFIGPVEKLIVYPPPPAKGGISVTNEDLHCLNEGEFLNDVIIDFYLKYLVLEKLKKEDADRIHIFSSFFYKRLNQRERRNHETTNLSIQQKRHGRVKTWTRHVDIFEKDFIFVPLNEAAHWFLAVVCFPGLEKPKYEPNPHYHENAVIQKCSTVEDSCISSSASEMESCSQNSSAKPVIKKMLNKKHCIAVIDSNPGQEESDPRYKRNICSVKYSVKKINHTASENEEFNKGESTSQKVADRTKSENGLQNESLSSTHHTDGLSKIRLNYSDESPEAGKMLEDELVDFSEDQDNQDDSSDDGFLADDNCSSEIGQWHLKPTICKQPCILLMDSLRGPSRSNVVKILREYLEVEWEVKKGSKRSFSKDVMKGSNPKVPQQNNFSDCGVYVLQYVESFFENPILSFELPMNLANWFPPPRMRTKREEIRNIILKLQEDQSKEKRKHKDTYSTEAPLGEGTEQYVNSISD

[7] = biological target: T2, Sentrin-specific protease 8 (Homo sapiens, UniProt Q96LD8); test: SENP8 protease inhibitors, SAR follow-up, biochemical, luminescence, set 2 (AID 588601); format: functional
T2 sequence (Q96LD8 whole entry): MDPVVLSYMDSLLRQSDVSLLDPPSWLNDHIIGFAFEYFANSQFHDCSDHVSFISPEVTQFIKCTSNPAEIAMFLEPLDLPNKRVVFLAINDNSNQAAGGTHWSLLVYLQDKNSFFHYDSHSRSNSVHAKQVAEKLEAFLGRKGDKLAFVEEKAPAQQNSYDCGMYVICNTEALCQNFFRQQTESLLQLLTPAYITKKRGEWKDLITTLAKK

[8] = biological target: T3, Sentrin-specific protease 7 (Homo sapiens, UniProt Q9BQF6); test: SENP7 protease inhibitors, SAR follow-up, biochemical, luminescence, set 2 (AID 588600); format: functional
T3 sequence (Q9BQF6 whole entry): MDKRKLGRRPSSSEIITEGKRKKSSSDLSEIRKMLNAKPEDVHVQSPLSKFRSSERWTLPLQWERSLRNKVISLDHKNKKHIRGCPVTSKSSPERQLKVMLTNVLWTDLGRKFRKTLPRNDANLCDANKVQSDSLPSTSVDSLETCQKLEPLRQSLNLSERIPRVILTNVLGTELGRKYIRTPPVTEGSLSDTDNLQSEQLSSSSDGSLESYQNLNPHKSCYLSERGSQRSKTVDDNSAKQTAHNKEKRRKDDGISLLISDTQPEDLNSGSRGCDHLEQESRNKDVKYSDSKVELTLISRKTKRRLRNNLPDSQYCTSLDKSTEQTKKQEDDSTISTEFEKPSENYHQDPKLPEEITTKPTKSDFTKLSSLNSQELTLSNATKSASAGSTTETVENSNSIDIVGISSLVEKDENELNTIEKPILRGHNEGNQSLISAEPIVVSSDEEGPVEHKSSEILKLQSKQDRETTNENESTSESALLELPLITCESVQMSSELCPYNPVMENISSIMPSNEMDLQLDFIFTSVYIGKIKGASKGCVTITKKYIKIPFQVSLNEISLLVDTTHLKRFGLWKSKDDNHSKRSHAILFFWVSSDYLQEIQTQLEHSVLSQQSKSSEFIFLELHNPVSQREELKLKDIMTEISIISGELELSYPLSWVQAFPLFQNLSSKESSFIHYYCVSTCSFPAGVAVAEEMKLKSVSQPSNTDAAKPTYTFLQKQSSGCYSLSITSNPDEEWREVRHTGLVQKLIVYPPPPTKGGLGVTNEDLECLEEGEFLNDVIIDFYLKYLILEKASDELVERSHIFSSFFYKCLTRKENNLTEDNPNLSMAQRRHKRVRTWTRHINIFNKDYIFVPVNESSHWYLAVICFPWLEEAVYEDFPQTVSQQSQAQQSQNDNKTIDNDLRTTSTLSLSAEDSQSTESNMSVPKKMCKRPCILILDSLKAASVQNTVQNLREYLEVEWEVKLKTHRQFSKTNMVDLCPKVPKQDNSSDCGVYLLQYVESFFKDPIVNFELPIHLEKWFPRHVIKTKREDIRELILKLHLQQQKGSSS

[9] = biological target: T4, Caspase-3 (Homo sapiens, UniProt P42574); test: caspase-3 inhibitors as off-family protease, SAR follow-up, selectivity assay for SENP protease inhibitor project, biochemical, luminescence, set 2 (AID 588599); format: functional
T4 sequence (P42574 whole entry): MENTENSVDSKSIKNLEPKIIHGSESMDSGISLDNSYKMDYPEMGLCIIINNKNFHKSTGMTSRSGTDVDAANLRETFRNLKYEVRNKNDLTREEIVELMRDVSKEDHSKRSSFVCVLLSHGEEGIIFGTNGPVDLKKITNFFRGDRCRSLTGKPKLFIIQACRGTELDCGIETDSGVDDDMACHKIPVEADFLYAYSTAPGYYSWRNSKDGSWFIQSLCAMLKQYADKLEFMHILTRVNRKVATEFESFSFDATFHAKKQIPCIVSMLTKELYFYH

[10] = test system: HEK293; test: HEK cell cytotoxicity by LDH release, dose response, cytotoxicity control for IDE activator project, fluorescence, HEK cells (AID 588440); format: functional, cell-based; details: Homo sapiens;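 note: cytotoxicity by LDH release measuring loss of membrane integrity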
[11] = biological target: T5, Insulin-degrading enzyme (Homo sapiens, UniProt P14735); test: activators of endogenous IDE in HEK cells, dose response, cell-based, fluorescence polarization (AID 588439); format: functional
T5 sequence (P14735 whole entry): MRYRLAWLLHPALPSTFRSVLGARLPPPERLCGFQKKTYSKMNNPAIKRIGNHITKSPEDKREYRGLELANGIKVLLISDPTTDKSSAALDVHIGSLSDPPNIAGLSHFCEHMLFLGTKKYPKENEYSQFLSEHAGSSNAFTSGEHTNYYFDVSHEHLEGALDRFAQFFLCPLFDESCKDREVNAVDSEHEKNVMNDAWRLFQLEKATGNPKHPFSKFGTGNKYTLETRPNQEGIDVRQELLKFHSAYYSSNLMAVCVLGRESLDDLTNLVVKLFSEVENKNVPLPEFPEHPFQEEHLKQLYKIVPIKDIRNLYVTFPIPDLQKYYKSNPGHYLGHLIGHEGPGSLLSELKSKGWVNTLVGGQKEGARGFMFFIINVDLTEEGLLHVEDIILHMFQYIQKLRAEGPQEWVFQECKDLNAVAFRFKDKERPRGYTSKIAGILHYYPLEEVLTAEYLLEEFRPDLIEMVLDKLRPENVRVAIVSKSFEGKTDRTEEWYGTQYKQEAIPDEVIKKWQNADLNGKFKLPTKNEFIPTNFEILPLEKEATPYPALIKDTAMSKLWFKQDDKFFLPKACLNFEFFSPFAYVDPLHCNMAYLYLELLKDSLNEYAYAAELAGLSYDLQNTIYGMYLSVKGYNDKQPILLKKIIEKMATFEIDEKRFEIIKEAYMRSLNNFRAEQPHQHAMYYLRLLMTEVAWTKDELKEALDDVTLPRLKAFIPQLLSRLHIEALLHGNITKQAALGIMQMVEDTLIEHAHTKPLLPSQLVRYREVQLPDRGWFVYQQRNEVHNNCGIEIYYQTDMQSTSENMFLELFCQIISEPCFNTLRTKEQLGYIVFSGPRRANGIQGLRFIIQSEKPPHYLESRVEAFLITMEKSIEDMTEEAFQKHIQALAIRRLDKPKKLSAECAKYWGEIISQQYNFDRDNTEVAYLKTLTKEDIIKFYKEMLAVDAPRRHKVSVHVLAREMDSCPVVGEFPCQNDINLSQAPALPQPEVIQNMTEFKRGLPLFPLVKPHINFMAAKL

[12] = biological target: T5, Insulin-degrading enzyme; test: activators of recombinant IDE enzyme, dose response, counter-screen for IDE activator project, biochemical, fluorescence polarization (AID 588681)
[13] = test system: HEK293; test: optical interference in Abeta FP readout, dose response, artefact control for IDE activator project, biochemical, fluorescence polarization (AID 588442); format: functional, cell-based; details: Homo sapiens
[14] = biological target: T3, Sentrin-specific protease 7; test: SENP7 protease inhibitors, SAR follow-up, biochemical, luminescence (AID 504497); format: functional
[15] = biological target: T2, Sentrin-specific protease 8; test: SENP8 protease inhibitors, SAR follow-up, biochemical, luminescence (AID 504501); format: functional
[16] = biological target: T4, Caspase-3; test: SAR Analysis of small molecule inhibitors of Sentrin-specific proteases (SENPs) using a Caspase-3 Selectivity assay. [Related pubchem assays (depositor defined):AID2540, AID2599, AID434973, AID489001]; format: functional
[17] = biological target: T1, Sentrin-specific protease 6; test: SAR Analysis of small molecule inhibitors of Sentrin-specific protease 6 (SENP6) using a Luminescent assay. [Related pubchem assays (depositor defined):AID2582, AID2599]; format: functional

Sequence of DNA dC->dU-editing enzyme APOBEC-3G (Q9HC16 whole entry): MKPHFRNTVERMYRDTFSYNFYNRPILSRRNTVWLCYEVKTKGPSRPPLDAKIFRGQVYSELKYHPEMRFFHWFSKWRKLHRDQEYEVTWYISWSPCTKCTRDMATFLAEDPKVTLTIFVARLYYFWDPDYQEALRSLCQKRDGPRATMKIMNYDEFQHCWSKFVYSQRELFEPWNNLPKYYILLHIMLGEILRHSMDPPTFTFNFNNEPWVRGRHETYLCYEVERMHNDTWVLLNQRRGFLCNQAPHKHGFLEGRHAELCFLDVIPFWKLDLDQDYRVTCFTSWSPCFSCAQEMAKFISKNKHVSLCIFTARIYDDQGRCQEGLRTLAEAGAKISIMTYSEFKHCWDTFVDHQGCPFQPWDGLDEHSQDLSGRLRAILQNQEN
Sequence of DNA dC->dU-editing enzyme APOBEC-3A (P31941 whole entry): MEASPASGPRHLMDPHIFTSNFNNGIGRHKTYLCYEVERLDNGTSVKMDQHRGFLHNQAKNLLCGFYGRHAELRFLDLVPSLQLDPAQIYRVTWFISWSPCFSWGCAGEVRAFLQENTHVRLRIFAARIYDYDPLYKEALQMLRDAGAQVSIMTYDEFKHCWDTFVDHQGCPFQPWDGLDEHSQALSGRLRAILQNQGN
Sequence of Cytochrome P450 2C9 (P11712 whole entry): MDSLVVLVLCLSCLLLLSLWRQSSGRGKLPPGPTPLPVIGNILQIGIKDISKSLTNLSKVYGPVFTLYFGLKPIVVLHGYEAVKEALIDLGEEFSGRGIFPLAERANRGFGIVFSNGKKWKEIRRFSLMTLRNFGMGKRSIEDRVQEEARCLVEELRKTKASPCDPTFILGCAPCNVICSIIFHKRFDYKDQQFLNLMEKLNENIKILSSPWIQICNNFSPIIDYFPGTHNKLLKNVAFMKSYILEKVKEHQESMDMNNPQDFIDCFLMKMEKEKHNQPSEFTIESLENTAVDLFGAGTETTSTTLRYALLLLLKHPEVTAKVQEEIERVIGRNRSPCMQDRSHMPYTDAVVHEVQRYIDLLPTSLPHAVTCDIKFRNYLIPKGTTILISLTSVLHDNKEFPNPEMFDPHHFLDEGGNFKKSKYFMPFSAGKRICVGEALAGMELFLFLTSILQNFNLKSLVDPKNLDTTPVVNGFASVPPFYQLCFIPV
Sequence of Cytochrome P450 2C19 (P33261 whole entry): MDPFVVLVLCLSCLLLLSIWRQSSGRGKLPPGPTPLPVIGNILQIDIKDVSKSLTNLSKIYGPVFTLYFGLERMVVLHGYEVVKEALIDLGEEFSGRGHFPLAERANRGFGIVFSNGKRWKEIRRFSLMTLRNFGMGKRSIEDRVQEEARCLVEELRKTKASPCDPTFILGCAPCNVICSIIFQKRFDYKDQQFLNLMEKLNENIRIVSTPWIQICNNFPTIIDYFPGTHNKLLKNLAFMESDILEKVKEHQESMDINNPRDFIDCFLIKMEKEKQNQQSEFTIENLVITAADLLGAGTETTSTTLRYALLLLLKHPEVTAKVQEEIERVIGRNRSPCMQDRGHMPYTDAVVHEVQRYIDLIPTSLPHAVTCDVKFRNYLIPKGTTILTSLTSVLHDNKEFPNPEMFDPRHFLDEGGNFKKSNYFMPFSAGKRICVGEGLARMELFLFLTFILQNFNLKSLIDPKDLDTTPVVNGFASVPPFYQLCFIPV
Sequence of Cytochrome P450 2D6 (P10635 whole entry): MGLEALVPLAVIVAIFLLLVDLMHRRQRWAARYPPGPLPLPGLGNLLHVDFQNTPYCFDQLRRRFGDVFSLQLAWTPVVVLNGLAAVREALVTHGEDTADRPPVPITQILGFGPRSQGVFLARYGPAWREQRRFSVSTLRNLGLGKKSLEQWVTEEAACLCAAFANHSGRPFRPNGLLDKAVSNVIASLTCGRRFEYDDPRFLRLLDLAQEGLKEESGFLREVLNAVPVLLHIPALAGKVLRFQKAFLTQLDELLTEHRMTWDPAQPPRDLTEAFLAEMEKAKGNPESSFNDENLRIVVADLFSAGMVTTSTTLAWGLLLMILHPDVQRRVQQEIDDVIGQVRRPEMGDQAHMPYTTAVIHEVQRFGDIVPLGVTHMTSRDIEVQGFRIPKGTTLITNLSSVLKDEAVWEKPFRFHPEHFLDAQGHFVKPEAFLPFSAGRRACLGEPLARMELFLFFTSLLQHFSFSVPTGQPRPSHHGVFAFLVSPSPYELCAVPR

IC50 [6]	IC50 [8]	IC50 [9]	SMILES	IC50 [1]	IC50 [2]	IC50 [7]	IC50 [10]	EC50 [11]	EC50 [12]	EC50 [13]	also measured
–	–	–	C=CCSc1nnc(-c2cc3c(C(F)(F)F)nn(C)c3s2)n1C	70.8 µM (inactive)	> 99 µM (inactive)	–	–	–	–	–	AC50 [3]: 17.8 µM (inconclusive); AC50 [4]: 3.55 µM (inconclusive); AC50 [5]: inconclusive
> 99 µM (inactive)	> 99 µM (inactive)	> 99 µM (inactive)	CCN1CCN(CCCNC(=O)C(=O)c2c[nH]c3ccccc23)CC1	–	–	> 99 µM (inactive)	–	–	–	–	–
–	–	–	C1CCCCCC(=NNc2nn[nH]n2)CCCCC1	–	–	–	> 89.2 µM (inactive)	> 54.7 µM (inactive)	> 54.7 µM (inactive)	> 56 µM (inactive)	–
0.652 µM (active)	0.558 µM (active)	0.465 µM (active)	Cn1cccc1C(=O)Nc1nc2ccc(Cl)cc2s1	–	–	0.619 µM (active)	–	–	–	–	IC50 [14]: 0.49 µM (active); IC50 [15]: 0.52 µM (active); IC50 [16]: 0.42 µM (active); IC50 [17]: 0.54 µM (active)
–	–	–	O=C(Nc1ccc(-c2nc3ccccc3o2)cc1)c1ccc2c(c1)OCO2	–	–	–	> 9.91 µM (active)	> 54.7 µM (inactive)	> 54.7 µM (inactive)	> 55.9 µM (inactive)	–
–	–	–	Cc1cc(C(=O)Cn2ccccc2=O)c(C)n1Cc1ccccc1	> 99 µM (inactive)	> 99 µM (inactive)	–	–	–	–	–	–
